Source: US4670562A, “Dihydropyrrolo[1,2-b]isoquinolinedione oximes” (priority 1986, dated 1987)
Like-named read-outs stand apart in the source and are kept apart here.

Biological target: acetylcholinesterase (Homo sapiens, UniProt P22303)
Experiment: Cholinesterase Inhibition Assay (photometric method of Ellman et al.)
Format: biochemical
[1] = photometric method of Ellman et al., read-out: Cholinesterase Inhibition IC50

acetylcholinesterase, sequence (P22303 32-614): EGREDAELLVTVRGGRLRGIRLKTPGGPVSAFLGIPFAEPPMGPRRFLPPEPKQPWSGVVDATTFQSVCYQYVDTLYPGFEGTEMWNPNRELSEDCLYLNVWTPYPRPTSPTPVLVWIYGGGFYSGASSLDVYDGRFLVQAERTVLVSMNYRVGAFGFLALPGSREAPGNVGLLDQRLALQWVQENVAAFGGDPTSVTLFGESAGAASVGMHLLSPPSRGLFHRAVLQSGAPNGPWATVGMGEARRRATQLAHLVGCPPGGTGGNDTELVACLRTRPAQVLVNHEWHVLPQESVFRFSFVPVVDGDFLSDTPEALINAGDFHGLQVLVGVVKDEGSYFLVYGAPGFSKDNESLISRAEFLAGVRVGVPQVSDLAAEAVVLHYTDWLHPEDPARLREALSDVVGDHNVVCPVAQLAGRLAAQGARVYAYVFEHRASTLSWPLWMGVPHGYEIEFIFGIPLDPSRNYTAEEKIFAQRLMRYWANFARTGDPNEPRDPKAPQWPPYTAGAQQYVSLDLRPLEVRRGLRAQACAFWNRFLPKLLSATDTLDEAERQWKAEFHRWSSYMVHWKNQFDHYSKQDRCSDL

Compound | IC50 [µM] | IC50 [1] [µM]
CN1CCN(C2=Nc3c(ncc4ccccc34)CC2)CC1 [3,4-Dihydro-2-(4-methyl-1-piperazinyl)benzo[c]-1,5-naphthyridine hemihydrate] | 840 | –
c1ccc2c3c(ncc2c1)CCCN3 [1,2,3,4-Tetrahydrobenzo[c]-1,5-naphthyridine] | – | 61
O=C(Cc1ccccc1)N1CCCc2ncc3ccccc3c21 [1-(Phenylacetyl)-1,2,3,4-tetrahydrobenzo[c]-1,5-naphthyridine] | – | 320
